Source: patent publication US8283365B2, “Indole modulators of the alpha 7 nicotinic acetylcholine receptor” (Proximagen Limited, priority 2008, dated 2012)

Target: T1, human α7 nAChR (Homo sapiens, UniProt P36544)
T1 construct: expressed in transfected cells; host or cells: GH4C1 (rat pituitary) cell line, stably transfected
Assay: FLIPR cell-based calcium flux assay for PAM activity at α7 nAChR (nicotine-evoked response)
Conditions: GH4C1 cell line stably transfected with human α7 nAChR
Protocol: The PAM activity of the compounds of the invention at the α7 nAChR may be determined using the following cell-based calcium flux assay which uses a Fluorimetric Image Plate Reader (FLIPR) (see Schroeder et al.; J. Biomolecular Screening, 1(2), p 75-80, 1996).
GH4C1 cell line stably transfected with human α7 nAChR was suspended in a 384 well plate and incubated at 30° C. for 48 h in a 5% carbon dioxide atmosphere. The growth media was removed and the cells washed three times with a solution of Hanks' balanced salt solution (HBSS), 20 mM HEPES and 2.5 mM probenecid leaving 20 μl washing solution in each well. A loading solution (20 μl) containing HBSS, probenecid, 1-4 μM Fluo4 AM (a calcium indicator dye) and pluronic acid was added and the plate incubated for 45 min at 37° C. under an atmosphere free from carbon dioxide. The cells were washed three times leaving 30 μl in each well. The plate containing the cells and calcium indicator dye were then transferred to the FLIPR. The assay was initiated by collecting baseline datapoints at 10 second intervals followed by addition of the test compound in buffer solution (0.33% DMSO) and diluted to a final concentration of 10 μM and serial dilution of the wells, 1:2 or 1:3, gave a low concentration of <1 nM. Following a further 5-10 mins 10 μl of 50 μM nicotine was added and data collected for 2-3 mins. […]

T1 sequence (P36544 23-502): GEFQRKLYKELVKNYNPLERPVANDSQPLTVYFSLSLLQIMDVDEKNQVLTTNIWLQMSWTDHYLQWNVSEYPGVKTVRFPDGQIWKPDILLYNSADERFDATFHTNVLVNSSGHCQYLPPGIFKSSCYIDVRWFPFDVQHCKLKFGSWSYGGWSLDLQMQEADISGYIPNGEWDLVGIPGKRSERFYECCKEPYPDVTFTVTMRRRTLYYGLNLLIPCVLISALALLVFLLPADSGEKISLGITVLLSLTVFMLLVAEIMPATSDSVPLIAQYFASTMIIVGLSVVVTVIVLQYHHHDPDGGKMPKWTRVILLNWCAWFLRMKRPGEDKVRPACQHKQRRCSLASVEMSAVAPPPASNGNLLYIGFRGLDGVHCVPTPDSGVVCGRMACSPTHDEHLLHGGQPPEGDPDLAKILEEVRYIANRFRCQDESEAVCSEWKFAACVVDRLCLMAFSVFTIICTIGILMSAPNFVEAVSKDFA

EC50 (potentiation of nicotine-evoked calcium flux): < 1 µM
maximum potentiation of the response area relative to nicotine control (relative to nicotine control): approximately 1200%
Compound: O=C(NCc1ccc2[nH]c(C(F)(F)F)cc2c1)c1ccc(C(F)(F)F)nc1 [Compound 1, N-[(2-Trifluoromethyl-1H-indol-5-yl)methyl]-6-(trifluoromethyl)-3-pyridinecarboxamide]
